Key:
Assay type in all cases: cell-based, Escherichia coli
Conditions in all cases: MHB, 37°C, 24 h, triplicate
E. coli DH5α = test: MIC, broth microdilution, E. coli DH5α carrying pUC118 or resistance-conferring plasmids
Description: (§1) Escherichia coli DH5α, E. coli BL21(DE3), and E. coli JM109 were utilized in this study.
(§2) The MICs were determined using the broth microdilution method in 96-well microtiter plates ([Wiegand et al., 2008]). In brief, a 1:100 dilution of the mid-exponential phase bacterial culture (OD600 = 0.5), consisting of 5 μL (1 × 10^5 CFU/mL), was introduced into polypropylene 96-well plates. These plates contained a two-fold dilution series of AMP in a total volume of 100 μL MHB per well. The incubation of the plates occurred at 37°C in a humidity chamber. The MIC was identified as the lowest concentration that hindered visible bacterial growth after 24 h of incubation. Each experiment was conducted in triplicate.
(§3) Following validation, the colonies displaying resistance underwent additional testing via MIC assessments for the remaining four AMPs that were not employed during the selection process. This experimental procedure was carried out in triplicate.

E. coli JM109 = test: MIC, broth microdilution, retransformed E. coli JM109
Description: as §1, §2
(§4) Before washing down the colonies, we randomly selected two clones from each plate containing distinct AMP. Colony PCRs were conducted using M13 primer pairs to validate the presence of inserts and determine their sizes. The selected colonies were then subjected to sequencing. The specific details are provided in Supplementary Table S2. Following that, plasmids were isolated using the Plasmid Midiprep Kit (Zomanbio, ZP103) following the manufacturer’s guidelines. After the plasmids were successfully reintroduced into E. coli JM109 and E. coli BL 21(DE3), the MICs of the transformed strains against the AMP used for selection were tested. This testing process was carried out in triplicate.
as §3

E. coli BL21(DE3) = test: MIC, broth microdilution, retransformed E. coli BL21(DE3)
Description: as §1, §2, §4, §3

Polymyxin B [PB]
MIC (E. coli DH5α; E. coli DH5α containing pUC118 plasmids): 0.5 mg/L | MIC (E. coli DH5α; colony pUC118-DH5α (control, no insert)): 0.5 mg/L | MIC (E. coli DH5α; colony pUC118-FCST1-DH5α (feces insert 1 selected against colistin)): 0.5 mg/L | MIC (E. coli DH5α; colony pUC118-FCST2-DH5α (feces insert 2 selected against colistin)): 1 mg/L | MIC (E. coli DH5α; colony pUC118-FGQ1-DH5α (feces insert 1 selected against melittin)): 1 mg/L | MIC (E. coli DH5α; colony pUC118-FGQ2-DH5α (feces insert 2 selected against melittin)): 1 mg/L | MIC (E. coli DH5α; colony pUC118-FIB1-DH5α (feces insert 1 selected against iseganan)): 0.5 mg/L | MIC (E. coli DH5α; colony pUC118-FIB2-DH5α (feces insert 2 selected against iseganan)): 1 mg/L | MIC (E. coli DH5α; colony pUC118-FPB1-DH5α (feces insert 1 selected against polymyxin B)): 1 mg/L | MIC (E. coli DH5α; colony pUC118-FPB2-DH5α (feces insert 2 selected against polymyxin B)): 1 mg/L | MIC (E. coli DH5α; colony pUC118-FSA1-DH5α (feces insert 1 selected against cathelicidin-DM)): 0.5 mg/L | MIC (E. coli DH5α; colony pUC118-FSA2-DH5α (feces insert 2 selected against cathelicidin-DM)): 1 mg/L | MIC (E. coli DH5α; colony pUC118-SCST1-DH5α (soil insert 1 selected against colistin)): 0.5 mg/L | MIC (E. coli DH5α; colony pUC118-SCST2-DH5α (soil insert 2 selected against colistin)): 0.5 mg/L | MIC (E. coli DH5α; colony pUC118-SGQ1-DH5α (soil insert 1 selected against melittin)): 0.5 mg/L | MIC (E. coli DH5α; colony pUC118-SGQ2-DH5α (soil insert 2 selected against melittin)): 0.5 mg/L | MIC (E. coli DH5α; colony pUC118-SIB1-DH5α (soil insert 1 selected against iseganan)): 0.5 mg/L | MIC (E. coli DH5α; colony pUC118-SIB2-DH5α (soil insert 2 selected against iseganan)): 0.5 mg/L | MIC (E. coli DH5α; colony pUC118-SPB1-DH5α (soil insert 1 selected against polymyxin B)): 1 mg/L | MIC (E. coli DH5α; colony pUC118-SPB2-DH5α (soil insert 2 selected against polymyxin B)): 2 mg/L | MIC (E. coli DH5α; colony pUC118-SSA1-DH5α (soil insert 1 selected against cathelicidin-DM)): 0.5 mg/L | MIC (E. coli DH5α; colony pUC118-SSA2-DH5α (soil insert 2 selected against cathelicidin-DM)): 0.5 mg/L | MIC (E. coli JM109; colony pUC118-FCST1-JM109 (feces insert 1 selected against colistin)): 0.25 mg/L | MIC (E. coli JM109; colony pUC118-FCST2-JM109 (feces insert 2 selected against colistin)): 1 mg/L | MIC (E. coli JM109; colony pUC118-FGQ1-JM109 (feces insert 1 selected against melittin)): 0.5 mg/L | MIC (E. coli JM109; colony pUC118-FGQ2-JM109 (feces insert 2 selected against melittin)): 0.5 mg/L | MIC (E. coli JM109; colony pUC118-FIB1-JM109 (feces insert 1 selected against iseganan)): 0.25 mg/L | MIC (E. coli JM109; colony pUC118-FIB2-JM109 (feces insert 2 selected against iseganan)): 0.5 mg/L | MIC (E. coli JM109; colony pUC118-FPB1-JM109 (feces insert 1 selected against polymyxin B)): 0.5 mg/L | MIC (E. coli JM109; colony pUC118-FPB2-JM109 (feces insert 2 selected against polymyxin B)): 0.5 mg/L | MIC (E. coli JM109; colony pUC118-FSA1-JM109 (feces insert 1 selected against cathelicidin-DM)): 0.25 mg/L | MIC (E. coli JM109; colony pUC118-FSA2-JM109 (feces insert 2 selected against cathelicidin-DM)): 0.5 mg/L | MIC (E. coli JM109; colony pUC118-JM109 (control, no insert)): 0.25 mg/L | MIC (E. coli JM109; colony pUC118-SCST1-JM109 (soil insert 1 selected against colistin)): 0.25 mg/L | MIC (E. coli JM109; colony pUC118-SCST2-JM109 (soil insert 2 selected against colistin)): 0.25 mg/L | MIC (E. coli JM109; colony pUC118-SGQ1-JM109 (soil insert 1 selected against melittin)): 0.25 mg/L | MIC (E. coli JM109; colony pUC118-SGQ2-JM109 (soil insert 2 selected against melittin)): 0.25 mg/L | MIC (E. coli JM109; colony pUC118-SIB1-JM109 (soil insert 1 selected against iseganan)): 0.25 mg/L | MIC (E. coli JM109; colony pUC118-SIB2-JM109 (soil insert 2 selected against iseganan)): 0.25 mg/L | MIC (E. coli JM109; colony pUC118-SPB1-JM109 (soil insert 1 selected against polymyxin B)): 0.5 mg/L | MIC (E. coli JM109; colony pUC118-SPB2-JM109 (soil insert 2 selected against polymyxin B)): 0.5 mg/L | MIC (E. coli JM109; colony pUC118-SSA1-JM109 (soil insert 1 selected against cathelicidin-DM)): 0.25 mg/L | MIC (E. coli JM109; colony pUC118-SSA2-JM109 (soil insert 2 selected against cathelicidin-DM)): 0.25 mg/L | MIC (E. coli BL21(DE3); colony pUC118-BL21(DE3) (control, no insert)): 1 mg/L | MIC (E. coli BL21(DE3); colony pUC118-FCST1-BL21(DE3) (feces insert 1 selected against colistin)): 1 mg/L | MIC (E. coli BL21(DE3); colony pUC118-FCST2-BL21(DE3) (feces insert 2 selected against colistin)): 2 mg/L | MIC (E. coli BL21(DE3); colony pUC118-FGQ1-BL21(DE3) (feces insert 1 selected against melittin)): 2 mg/L | MIC (E. coli BL21(DE3); colony pUC118-FGQ2- BL21(DE3) (feces insert 2 selected against melittin)): 2 mg/L | MIC (E. coli BL21(DE3); colony pUC118-FIB1-BL21(DE3) (feces insert 1 selected against iseganan)): 1 mg/L | MIC (E. coli BL21(DE3); colony pUC118-FIB2-BL21(DE3) (feces insert 2 selected against iseganan)): 2 mg/L | MIC (E. coli BL21(DE3); colony pUC118-FPB1-BL21(DE3) (feces insert 1 selected against polymyxin B)): 4 mg/L | MIC (E. coli BL21(DE3); colony pUC118-FPB2-BL21(DE3) (feces insert 2 selected against polymyxin B)): 2 mg/L | MIC (E. coli BL21(DE3); colony pUC118-FSA1-BL21(DE3) (feces insert 1 selected against cathelicidin-DM)): 1 mg/L | MIC (E. coli BL21(DE3); colony pUC118-FSA2-BL21(DE3) (feces insert 2 selected against cathelicidin-DM)): 4 mg/L | MIC (E. coli BL21(DE3); colony pUC118-SCST1-BL21(DE3) (soil insert 1 selected against colistin)): 1 mg/L | MIC (E. coli BL21(DE3); colony pUC118-SCST2-BL21(DE3) (soil insert 2 selected against colistin)): 1 mg/L | MIC (E. coli BL21(DE3); colony pUC118-SGQ1-BL21(DE3) (soil insert 1 selected against melittin)): 1 mg/L | MIC (E. coli BL21(DE3); colony pUC118-SGQ2-BL21(DE3) (soil insert 2 selected against melittin)): 1 mg/L | MIC (E. coli BL21(DE3); colony pUC118-SIB1-BL21(DE3) (soil insert 1 selected against iseganan)): 1 mg/L | MIC (E. coli BL21(DE3); colony pUC118-SIB2-BL21(DE3) (soil insert 2 selected against iseganan)): 1 mg/L | MIC (E. coli BL21(DE3); colony pUC118-SPB1-BL21(DE3) (soil insert 1 selected against polymyxin B)): 2 mg/L | MIC (E. coli BL21(DE3); colony pUC118-SPB2-BL21(DE3) (soil insert 2 selected against polymyxin B)): 2 mg/L | MIC (E. coli BL21(DE3); colony pUC118-SSA1-BL21(DE3) (soil insert 1 selected against cathelicidin-DM)): 1 mg/L | MIC (E. coli BL21(DE3); colony pUC118-SSA2-BL21(DE3) (soil insert 2 selected against cathelicidin-DM)): 1 mg/L

Source: PMC10999558, “Analyzing resistome in soil and Human gut: a study on the characterization and risk evaluation of antimicrobial peptide resistance” (Frontiers in Microbiology, 2024)
